Source: US20150034084A1, “[…] NITRIC OXIDE FOR TREATING RESPIRATORY DISEASES” (Advanced Inhalation Therapies (AIT) Ltd., priority 2012, published 2015)

Key:
[1] = system: S. aureus (ATCC); settings: 200 ppm gNO, saline; cited from earlier work
[2] = system: S. maltophilia; settings: 200 ppm gNO, saline; cited from earlier work
[3] = system: Klebsiella sp.#3; settings: 200 ppm gNO, saline; cited from earlier work
[4] = system: highly pathogenic Avian Influenza H7N3; settings: cited from earlier work
[5] = system: Enterobacter sp.; settings: 200 ppm gNO, saline; cited from earlier work
[6] = system: S. aureus (Clinical); settings: 200 ppm gNO, saline; cited from earlier work
[7] = system: chronic, non-healing wound; settings: topical 200 ppm gNO, cited from earlier work
[8] = OSHA / Environmental Protection Agency; cited from earlier work
[9] = Phase I safety study: inspiratory NO2 level during gNO delivery; design: species or system human; settings: inspired gas at mouthpiece
Protocol: Subjects were administered gNO through a modified disposable mouthpiece to maximize mixing. Inspiration was spontaneously initiated by the subject from a conventional intermittent positive pressure breathing respirator (Mark-7, Carefusion, USA) in fixed flow mode delivering 48 liters per minute (LPM). Flows of gas were verified with a calibrated mass flow meter (TSI, USA). Gaseous nitric oxide (gNO, obtained at INOmax, Ikaria, USA) at a concentration of 800 ppm delivered at a flow of 12 LPM was titrated into a distal delivery port on the mouth piece connected to the respirator during inspiratory phase only (pressure switch). The Mark 7 respirator was supplied by an air/oxygen blender (Bird Sentry, Carefusion, USA) set to deliver 26% oxygen.
The levels of gNO, NO2, O2 and methemoglobin were monitored during the administration of gNO. The target gas mixture was 160 ppm gNO with a nitrogen dioxide (NO2) level of less than 5 ppm and an oxygen (O2) level ranging from 21% to 25%. Inspiratory NO, NO2 and O2 levels were continuously monitored by sampling from the mouthpiece sample port located about 6 millimeters from the mouth of the subject with an AeroNOx (Pulmonox, AB, Canada) NO, NO2 and O2 electrochemical analyzer. Delivery safety was determined by the number of occasions that NO2 exceeded 5 ppm, gNO exceeding 10% variation and O2 dropping below 20% during gNO administration. […]

[10] = in vivo; cited from earlier work
[11] = system: P. aeruginosa; settings: cited from earlier work
[12] = system: bovine respiratory disease; settings: intermittent 30 minute exposures of gNO, cattle; cited from earlier work
[13] = system: Mycobacterium; settings: 200 ppm gNO, saline; cited from earlier work
[14] = system: MRSA biofilm; settings: 200 ppm gNO for eight hours (1,600 ppm hours); cited from earlier work
[15] = Phase I safety study: pulmonary function tests; assay type: in vivo, human
Protocol: (§1) After obtaining informed consent, treatment was initiated within 5 days of enrollment. Subjects were housed in a hospital ward and received 160 ppm gNO for 30 minutes every four hours (Q4h), five times a day, for five consecutive days by inhalation. Subjects returned for follow-up evaluations 3, 7 and 21 days after the final gNO administration. Subject safety was determined by monitoring vital signs, methemoglobin levels, lung function, blood chemistry, hematology, prothrombin time, inflammatory cytokine/chemokines levels and endothelial activation. These parameters were compared to baseline and at various time-points during and after gNO administration.
Subjects underwent full pulmonary function tests (PFT), including lung diffusing capacity (DLCO) by a trained technician utilizing a calibrated pulmonary function system (Jaeger MasterScreen, VIASYS Healthcare, USA) on screening and days 2, 8, 12 and 26. Spirometry test (Microloop by Micro Medical, England) was performed on days 1, 3 and 4. Effect of gNO on lung function and DLCO was determined by changes from baseline, treatment days and follow up days.

[16] = system: Klebsiella sp.#1; settings: 200 ppm gNO, saline; cited from earlier work
[17] = system: inflammatory cytokines; test: Phase I safety study: plasma cytokines by cytometric bead array; assay type: in vivo, human; settings: 160 ppm gNO inhalation
Protocol: as §1
Hematological assessment included a complete blood count and differentials (hemoglobin, hematocrit, red blood cell count, white blood cell count, white blood cell differential, and platelet count) were obtained in order to monitor blood chemistry, hematology and inflammation measurements. The blood chemistry profile included serum creatinine, and liver function tests such as aspartate aminotransferase (AST) serum glutamic oxaloacetic transaminase (SGOT), alkaline phosphatase, and gamma-glutamyl transferase (GGT). The effect of gNO on coagulation was determined by the prothrombin time (PT) and its derived measures of prothrombin ratio (PR) and international normalized ratio (INR). Heparinized plasma was collected at baseline and on days 1, 2, 4, and 5 of gNO administration, and on follow-up days 3, 7 and 21 and frozen at −80° C. Plasma cytokine levels were assessed using the human inflammation cytokine bead array kit (BD Bioscience, Canada). Plasma levels of angiopoietin Ang-1 and Ang-2 were determined by ELISA (R&D Systems, USA).
To assess whether gNO inhalation may cause inflammation or endothelial activation cytokines and the vascular endothelium activation factors Ang-1 and Ang-2 were quantified in peripheral plasma at baseline at various time points thereafter.

[N]=O [gNO, nitric oxide]
LD100 [1]: 4 h | Latent Period [1]: 3 h | −2.5 Log10 [1]: 3.3 hours | LD100 [2]: 4 h | Latent Period [2]: 2 h | −2.5 Log10 [2]: 2.8 hours | LD100 [3]: 6 h | Latent Period [3]: 3 h | −2.5 Log10 [3]: 5.1 hours | infectivity [4]: reducing the infectivity | LD100 [5]: 6 h | Latent Period [5]: 4 h | −2.5 Log10 [5]: 5.3 hours | LD100 [6]: 4 h | Latent Period [6]: 3 h | −2.5 Log10 [6]: 3.7 hours | reduction of wound size ([7]; at one week): 42% | biofilm on wound ([7]; within the first three days of treatment): no longer visibly present | inhalation threshold limit value (TLV) as a time-weighted average (TWA) [8]: 25 ppm | highest NO2 level recorded during the treatments ([9]; 160 ppm gNO): 2.8 ppm | mean NO2 level ([9]; 95% confidence level 2.17-2.47 ppm): 2.32 ppm | half-life in the body [10]: less than 6 seconds | nitrate excreted in the urine, share of the nitric oxide dose inhaled [10]: more than 70% | survival (downward bactericidal trend towards) ([11]; 50-160 ppm gNO, solid media, vs medical air): 5-10% | reduction of colony formation ([11]; gNO greater than 120 ppm, agar plates): greater than 90% | time required to achieve the >90% reduction of colony formation ([11]; gNO greater than 120 ppm): 8 to 12 h | clinical symptoms of bovine respiratory disease [12]: decrease the clinical symptoms | LD100 [13]: 10 h | Latent Period [13]: 7 h | −2.5 Log10 [13]: 9.2 hours | MRSA in biofilm [14]: shown to reduce MRSA | lung parenchymal injury ([15]; 160 ppm NO, measured by lung function parameters): did not cause lung parenchymal injury | pulmonary function tests, abnormalities ([15]; during and after gNO administration, 160 ppm): did not reveal any abnormalities | DLCO versus baseline ([15]; during the course of the study): did not change from baseline | FEV1 versus baseline ([15]; during the course of the study): did not differ from baseline | forced vital capacity (FVC) versus baseline ([15]; during the course of the study): did not change from baseline | maximum mid-expiratory flow (MMEF) versus baseline ([15]; during the course of the study): did not differ from baseline | residual volume (RV) versus baseline ([15]; during the course of the study): did not change from baseline | total lung capacity (TLC) versus baseline ([15]; during the course of the study): did not change from baseline | LD100 [16]: 6 h | Latent Period [16]: 3 h | −2.5 Log10 [16]: 3.5 hours | plasma IL-1b level versus baseline [17]: unaffected | plasma IL-6 level versus baseline [17]: unaffected | plasma IL-8 level versus baseline [17]: unaffected | plasma IL-10 level versus baseline [17]: unaffected | plasma IL-12p70 level versus baseline [17]: unaffected | plasma TNF level versus baseline [17]: unaffected
